Measured values published in patent US11939320B2, “Modulators of the integrated stress pathway” (Calico Life Sciences LLC, priority 2017, dated 2024).

Test system: HEK293T cells carrying the ATF4 luciferase reporter
Assay: ATF4-Luc assay (in vitro model of VWMD)
Assay type: cell-based
Settings: Homo sapiens, HEK-293T; HEK293T cells with ATF4 5'-UTR firefly luciferase reporter; 1 μg/mL tunicamycin; 7 hours; One Glo luminescence
Protocol: In order to test exemplary compounds of the invention in a cellular context, a stable VWMD cell line was first constructed. The ATF4 reporter was prepared by fusing the human full-length ATF4 5′-UTR (NCBI Accession No. BC022088.2) in front of the firefly luciferase (FLuc) coding sequence lacking the initiator methionine as described in Sidrauski et al (eLife 2013). The construct was used to produce recombinant retroviruses using standard methods and the resulting viral supernatant was used to transduce HEK293T cells, which were then subsequently selected with puromycin to generate a stable cell line.
HEK293T cells carrying the ATF4 luciferase reporter were plated on polylysine coated 384-well plates (Greiner Bio-one) at 30,000 cells per well. Cells were treated the next day with 1 μg/mL tunicamycin and 200 nM of a compound of Formula (I) for 7 hours. Luminescence was measured using One Glo (Promega) as specified by the manufacturer. Cells were maintained in DMEM with L-glutamine supplemented with 10% heat-inactivated FBS (Gibco) and Antibiotic-Antimycotic solution (Gibco).
Table 2 below summarizes the EC50 data obtained using the ATF4-Luc assay for exemplary compounds of the invention.

With `COc1ccc(CNC(=O)[C@H]2CC[C@H](NC(=O)COc3ccc(Cl)c(Cl)c3)CC2)cn1` [Compound 105, (1r,4r)-4-[2-(3,4-dichlorophenoxy)acetamido]-N-[(6-methoxypyridin-3-yl)methyl]cyclohexane-1-carboxamide] the EC50 was > 2000 nM.

`O=C(COc1ccc(Cl)c(F)c1)N[C@H]1CC[C@H](C(=O)N2CCN(c3ccc(Cl)cc3)CC2)CC1` [Compound 127, 2-(4-chloro-3-fluorophenoxy)-N-{(1r,4r)-4-[4-(4-chlorophenyl)piperazine-1-carbonyl]cyclohexyl}acetamide] was tested, and the EC50 was > 2000 nM.

With `O=C(COc1ccc(Cl)c(F)c1)N[C@H]1CC[C@H](C(=O)NCc2ccc(C(F)(F)F)cn2)CC1` [Compound 119, (1r,4r)-4-[2-(4-chloro-3-fluorophenoxy)acetamido]-N-{[5-(trifluoromethyl)pyridin-2-yl]methyl}cyclohexane-1-carboxamide] the EC50 was < 10 nM.

With `O=C(COc1ccc(Cl)cc1)N[C@H]1CC[C@H](C(=O)NCc2nc3cc(F)c(F)cc3[nH]2)CC1` [Compound 155, (1r,4r)-4-[2-(4-chlorophenoxy)acetamido]-N-[(5,6-difluoro-1H-benzimidazol-2-yl)methyl]cyclohexane-1-carboxamide] the EC50 was 500 to 2000 nM.

For `NC(=O)c1ccc(CNC(=O)[C@H]2CC[C@H](NC(=O)COc3ccc(Cl)c(F)c3)CC2)nc1` [Compound 172, 6-[({(1r,4r)-4-[2-(4-chloro-3-fluorophenoxy)acetamido]cyclohexane-1-carbonyl}amino)methyl]pyridine-3-carboxamide], the EC50 was > 2000 nM.

With `O=C(COc1ccc(Cl)c(F)c1)N[C@H]1CC[C@H](C(=O)N(CCO)Cc2ccc(Cl)c(F)c2)CC1` [Compound 181, (1r,4r)-4-[2-(4-chloro-3-fluorophenoxy)acetamido]-N-[(4-chloro-3-fluorophenyl)methyl]-N-(2-hydroxyethyl)cyclohexane-1-carboxamide] the EC50 was 500 to 2000 nM.

In the case of `O=C(COc1ccc(Cl)c(F)c1)N[C@@H]1CC[C@@H](C(=O)N2CC(c3ccc(C(F)(F)F)cc3)C2)OC1` [Compound 134, 2-(4-chloro-3-fluorophenoxy)-N-[(3R,6S)-6-{3-[4-(trifluoromethyl)phenyl]azetidine-1-carbonyl}oxan-3-yl]acetamide], the EC50 is reported as < 10 nM.

For `O=C(COc1ccc(Cl)c(F)c1)N[C@H]1C[C@H](C(=O)NCc2ccc(Cl)cc2)C1` [Compound 169, (1r,3r)-3-[2-(4-chloro-3-fluorophenoxy)acetamido]-N-[(4-chlorophenyl)methyl]cyclobutane-1-carboxamide], the EC50 was > 2000 nM.

`O=C(COc1ccc(Cl)c(F)c1)N[C@H]1C[C@H](C(=O)NCc2ccc(C(F)(F)F)cn2)C1` [Compound 122, (1r,3r)-3-[2-(4-chloro-3-fluorophenoxy)acetamido]-N-{[5-(trifluoromethyl)pyridin-2-yl]methyl}cyclobutane-1-carboxamide] was tested, and the EC50 was 500 to 2000 nM.

`O=C(COc1ccc(Cl)c(F)c1)N[C@H]1CC[C@H](C(=O)NCc2cc(C(F)(F)F)ccn2)CC1` [Compound 171, (1r,4r)-4-[2-(4-chloro-3-fluorophenoxy)acetamido]-N-{[4-(trifluoromethyl)pyridin-2-yl]methyl}cyclohexane-1-carboxamide] showed an EC50 of 50 to 250 nM.

With `O=C(COc1ccc(Cl)c(F)c1)N[C@H]1CC[C@H](C(=O)N2CC(c3ccc(Cl)cc3)C2)CC1` [Compound 129, 2-(4-chloro-3-fluorophenoxy)-N-{(1r,4r)-4-[3-(4-chlorophenyl)azetidine-1-carbonyl]cyclohexyl}acetamide] the EC50 was < 10 nM.

`O=C(COc1ccc(Cl)c(Cl)c1)N[C@H]1CC[C@H](C(=O)NCc2ccc(C(F)F)cn2)CC1` [Compound 184, (1r,4r)-4-[2-(3,4-dichlorophenoxy)acetamido]-N-{[5-(difluoromethyl)pyridin-2-yl]methyl}cyclohexane-1-carboxamide] was tested, and the EC50 was 10 to 50 nM.

`O=C(COc1ccc(Cl)c(F)c1)N[C@@H]1CC[C@@H](C(=O)Nc2nccc(-c3ccc(Cl)c(F)c3)n2)OC1` [Compound 145, (2S,5R)-5-[2-(4-chloro-3-fluorophenoxy)acetamido]-N-[4-(4-chloro-3-fluorophenyl)pyrimidin-2-yl]oxane-2-carboxamide] showed an EC50 of 500 to 2000 nM.

With `O=C(COc1ccc(Cl)c(F)c1)N[C@H]1CC[C@H](C(=O)N2CCC[C@@H]2c2cc(F)ccc2F)CC1` [Compound 113, 2-(4-chloro-3-fluorophenoxy)-N-{(1R,4r)-4-[(2R)-2-(2,5-difluorophenyl)pyrrolidine-1-carbonyl]cyclohexyl}acetamide] the EC50 was > 2000 nM.

Compound `O=C(COc1ccc(Cl)c(Cl)c1)N[C@H]1CC[C@H](C(=O)N(CCO)Cc2ccc(Cl)c(F)c2)CC1` [Compound 180, (1r,4r)-N-[(4-chloro-3-fluorophenyl)methyl]-4-[2-(3,4-dichlorophenoxy)acetamido]-N-(2-hydroxyethyl)cyclohexane-1-carboxamide] has an EC50 of 500 to 2000 nM.

In the case of `O=C(COc1ccc(Cl)c(F)c1)N[C@H]1CC[C@H](C(=O)N2CCC[C@H]2c2cc(F)ccc2F)CC1` [Compound 114, 2-(4-chloro-3-fluorophenoxy)-N-{(1S,4r)-4-[(2S)-2-(2,5-difluorophenyl)pyrrolidine-1-carbonyl]cyclohexyl}acetamide], the EC50 is reported as > 2000 nM.

With `O=C(COc1ccc(Cl)c(F)c1)N[C@H]1CC[C@@H](C(=O)NCc2ccc(C(F)(F)F)cn2)OC1` (single isomer, unassigned) [Compound 162] the EC50 was > 2000 nM.

Compound `O=C(COc1ccc(Cl)c(Cl)c1)N[C@H]1CC[C@H](C(=O)NCc2ccc(OC(F)F)cn2)CC1` [Compound 120, (1r,4r)-4-[2-(3,4-dichlorophenoxy)acetamido]-N-{[5-(difluoromethoxy)pyridin-2-yl]methyl}cyclohexane-1-carboxamide] has an EC50 of 10 to 50 nM.

Compound `O=C(COc1ccc(Cl)c(F)c1)N[C@@H]1CC[C@@H](C(=O)NCc2nc(C(F)(F)F)c[nH]2)OC1` [Compound 135, (2S,5R)-5-[2-(4-chloro-3-fluorophenoxy)acetamido]-N-{[4-(trifluoromethyl)-1H-imidazol-2-yl]methyl}oxane-2-carboxamide] has an EC50 of 50 to 250 nM.

In the case of `O=C(COc1ccc(F)c(F)c1)N[C@H]1CC[C@H](C(=O)NCc2nc3cc(F)c(F)cc3[nH]2)CC1` [Compound 154, (1r,4r)-N-[(5,6-difluoro-1H-benzimidazol-2-yl)methyl]-4-[2-(3,4-difluorophenoxy)acetamido]cyclohexane-1-carboxamide], the EC50 is reported as > 2000 nM.

Compound `O=C(COc1ccc2c(c1)OC(F)(F)O2)N[C@H]1CC[C@H](C(=O)NCc2nc3cc(Cl)ccc3[nH]2)CC1` [Compound 148, (1r,4r)-N-[(5-chloro-1H-benzimidazol-2-yl)methyl]-4-{2-[(2,2-difluoro-2H-1,3-benzodioxol-5-yl)oxy]acetamido}cyclohexane-1-carboxamide] has an EC50 of 50 to 250 nM.

Work on `O=C(COc1ccc(Cl)c(F)c1)N[C@@H]1CC[C@@H](C(=O)N2CC(c3ccc(Cl)cc3)C2)OC1` [Compound 160, 2-(4-chloro-3-fluorophenoxy)-N-{(3R,6S)-6-[3-(4-chlorophenyl)azetidine-1-carbonyl]oxan-3-yl}acetamide] yielded an EC50 of 10 to 50 nM.

In the case of `O=C(COc1ccc(Cl)c(F)c1)N[C@H]1CC[C@H](C(=O)NCc2cc(OC3CCC3)ccn2)CC1` [Compound 170, (1r,4r)-4-[2-(4-chloro-3-fluorophenoxy)acetamido]-N-{[4-(cyclobutyloxy)pyridin-2-yl]methyl}cyclohexane-1-carboxamide], the EC50 is reported as > 2000 nM.

For `O=C(COc1ccc(Cl)c(F)c1)N[C@@H]1CC[C@@H](C(=O)NC2(c3ccc(Cl)cc3)CC2)OC1` [Compound 141, (2S,5R)-5-[2-(4-chloro-3-fluorophenoxy)acetamido]-N-[1-(4-chlorophenyl)cyclopropyl]oxane-2-carboxamide], the EC50 was > 2000 nM.

For `O=C(COc1ccc(Cl)c(F)c1)N[C@H]1CC[C@H](C(=O)NCc2ccc(Cl)cn2)CC1` [Compound 176, (1r,4r)-4-[2-(4-chloro-3-fluorophenoxy)acetamido]-N-[(5-chloropyridin-2-yl)methyl]cyclohexane-1-carboxamide], the EC50 was > 2000 nM.

Compound `O=C(COc1ccc(Cl)c(F)c1)N[C@H]1CC[C@H](C(=O)Nc2ccc(OCC(F)(F)F)nc2)CC1` [Compound 115, (1r,4r)-4-[2-(4-chloro-3-fluorophenoxy)acetamido]-N-[6-(2,2,2-trifluoroethoxy)pyridin-3-yl]cyclohexane-1-carboxamide] has an EC50 of 500 to 2000 nM.

`O=C(NCc1ccc(C(F)(F)F)cn1)[C@@H]1CC[C@@H](NC(=O)[C@H]2CNc3cc(Cl)ccc3O2)CO1` (single isomer, unassigned) [Compound 164] gave an EC50 of 50 to 250 nM.

Work on `O=C(COc1ccc(Cl)c(F)c1)N[C@H]1CC[C@H](C(=O)NCc2ccc(C(F)F)cn2)CC1` [Compound 187, (1r,4r)-4-[2-(4-chloro-3-fluorophenoxy)acetamido]-N-{[5-(difluoromethyl)pyridin-2-yl]methyl}cyclohexane-1-carboxamide] yielded an EC50 of 10 to 50 nM.

With `O=C(COc1ccc(Cl)c(F)c1)N[C@H]1CC[C@H](C(=O)NCc2cnco2)CC1` [Compound 118, (1r,4r)-4-[2-(4-chloro-3-fluorophenoxy)acetamido]-N-[(1,3-oxazol-5-yl)methyl]cyclohexane-1-carboxamide] the EC50 was > 2000 nM.

In the case of `O=C(COc1ccc(Cl)c(F)c1)N[C@H]1CC[C@H](C(=O)NCc2ccc3c(c2)OC(F)(F)O3)CC1` [Compound 179, (1r,4r)-4-[2-(4-chloro-3-fluorophenoxy)acetamido]-N-[(2,2-difluoro-2H-1,3-benzodioxol-5-yl)methyl]cyclohexane-1-carboxamide], the EC50 is reported as 10 to 50 nM.
